From US3991202A, “Imidazolium salts” (Janssen Pharmaceutica N.V., priority 1974, dated 1976)
Read-outs that look alike come from different tables or passages of the source.

Key:
Experiment in all cases: Antibacterial growth inhibition in phenol red dextrose broth
Type in all cases: cell-based
[1] = test system: Salmonella pullorum gallinarum; conditions: Salmonella enterica, 168 h; Sp. G.; tested at 100, 10, 1 μg/ml; read-out: Concentration in μ g for 100% Growth Inhibition
Description: (§1) The tests on bacteria were performed on cultures on phenol red dextrose broth medium (Difco). By using decimal dilution techniques described for the tests for antifungal activity, test media containing 100 μg, 10 μg and 1 μg of imidazolium salt per milliliter of medium were obtained. The inoculum consisted of a platinum loop (5 mm diameter) from a 24 hour broth culture. Forty-eight hours after incubation, subcultures were made from each culture for the determination of antibacterial activity of the imidazolium salts. After seven days of incubation, observations were made to determine the presence or absence of bacterial growth.

Streptococcus pyogenes = conditions: 168 h, Strep., tested at 100, 10, 1 μg/ml, read-out: Concentration in μ g for 100% Growth Inhibition
Description: as §1

Erysipelothrix insidiosa = conditions: Erysipelothrix rhusiopathiae, 168 h; E. ins.; tested at 100, 10, 1 μg/ml; read-out: Concentration in μ g for 100% Growth Inhibition
Description: as §1

Escherichia coli = conditions: 168 h, E. coli, tested at 100, 10, 1 μg/ml, read-out: Concentration in μ g for 100% Growth Inhibition
Description: as §1

Pseudomonas aeruginosa = conditions: 168 h, Ps. aer., read-out: Concentration in μ g for 100% Growth Inhibition
Description: as §1

[2] = test system: Staphylococcus hemolyticus; conditions: 168 h, Staph., tested at 100, 10, 1 μg/ml, read-out: Concentration in μ g for 100% Growth Inhibition
Description: as §1

Row | MIC [1] | MIC (Streptococcus pyogenes) | MIC (Erysipelothrix insidiosa) | MIC (Escherichia coli) | MIC (Pseudomonas aeruginosa; tested at 100, 10, 1 μg/ml) | MIC (Pseudomonas aeruginosa; growth observed at 100 μg/ml) | Structure (SMILES) | MIC [2]
1 | 10 µg/mL | 1 µg/mL | 1 µg/mL | 10 µg/mL | 100 µg/mL |  | O=C(C[n+]1ccn(CC(OCc2ccc(Cl)cc2Cl)c2ccc(Cl)cc2Cl)c1)Nc1ccc(F)cc1 (stereo not drawn) [CH2CONHC6H4pF, 1-[2,4-dichloro-β-(2,4-dichlorobenzyloxy)phenethyl]-3-[N-(p-fluorophenyl)carbamoylmethyl]imidazolium chloride] | 1 µg/mL
2 | 10 µg/mL | 1 µg/mL | 1 µg/mL | 10 µg/mL | 100 µg/mL |  | COc1ccc(NC(=O)C[n+]2ccn(CC(OCc3ccc(Cl)cc3Cl)c3ccc(Cl)cc3Cl)c2)cc1 (stereo not drawn) [CH2CONHC6H4pOCH3] | 1 µg/mL
3 | 10 µg/mL | 10 µg/mL | 10 µg/mL | 10 µg/mL | 100 µg/mL |  | Cc1ccc(CNC(=O)C[n+]2ccn(CC(OCc3ccc(Cl)cc3Cl)c3ccc(Cl)cc3Cl)c2)cc1 (stereo not drawn) [CH2CONHCH2C6H4pCH3, 1-[2,4-Dichloro-β-(2,4-dichlorobenzyloxy)phenethyl]-3-[N-(p-methylbenzyl)carbamoylmethyl]imidazolium chloride] | 10 µg/mL
4 | 100 µg/mL | 1 µg/mL | 1 µg/mL | 100 µg/mL | 100 µg/mL |  | CC(C(=O)Nc1cccc(Cl)c1)[n+]1ccn(CC(OCc2ccc(Cl)cc2Cl)c2ccc(Cl)cc2Cl)c1 (stereo not drawn) [CH(CH3)CONHC6H4mCl, 1-{1-[N-(m-Chlorophenyl)carbamoyl]ethyl 56-3-[2,4-dichloro-β-(2,4-dichlorobenzyloxy)phenethyl]imidazolium bromide] | 1 µg/mL
5 | 100 µg/mL | 1 µg/mL | 1 µg/mL | 100 µg/mL | 100 µg/mL |  | Fc1ccc(C(c2ccc(Cl)cc2)[n+]2ccn(CC(OCc3ccc(Cl)cc3Cl)c3ccc(Cl)cc3Cl)c2)cc1 (stereo not drawn) [drawing 69] | 1 µg/mL

Second part, the compound before the results:

Row | Structure (SMILES) | MIC [1] | MIC (Streptococcus pyogenes) | MIC (Erysipelothrix insidiosa) | MIC (Escherichia coli) | MIC (Pseudomonas aeruginosa; tested at 100, 10, 1 μg/ml) | MIC (Pseudomonas aeruginosa; growth observed at 100 μg/ml) | MIC [2]
6 | Cc1cc(Cl)ccc1NC(=O)CCn1cc[n+](CC(OCc2ccc(Cl)cc2Cl)c2ccc(Cl)cc2Cl)c1.[Cl-] (stereo not drawn) [(CH2)2CONHC6H32,4(CH3,Cl), 1-{2-[N-(4-chloro-o-tolyl)carbamoyl]ethyl}-3-[2,4-dichloro-β-(2,4-dichlorobenzyloxy)phenethyl]imidazolium chloride] | 10 µg/mL | 1 µg/mL | 1 µg/mL | 100 µg/mL | 100 µg/mL |  | 1 µg/mL
7 | Clc1ccc(COC(C[n+]2ccn(CCNc3ccccc3)c2)c2ccc(Cl)cc2Cl)c(Cl)c1.[Br-] (stereo not drawn) [(CH2)2NHC6H5, 1-(2-Anilinoethyl)-3-[2,4-dichloro-β-(2,4-dichlorobenzyloxy)phenethyl]imidazolium bromide] | 10 µg/mL | 1 µg/mL | 1 µg/mL | 10 µg/mL | 100 µg/mL |  | 1 µg/mL
8 | Clc1ccc(COC(C[n+]2ccn(CCNc3c(Cl)cccc3Cl)c2)c2ccc(Cl)cc2Cl)c(Cl)c1.O.[Br-] (stereo not drawn) [(CH2)2NHC6H32,6(Cl)2, 1-[2-(2,6-Dichloroanilino)ethyl]-3-[2,4-dichloro-β-(2,4-dichlorobenzyloxy)phenethyl]imidazolium bromide hydrate] | 10 µg/mL | 1 µg/mL | 1 µg/mL | 10 µg/mL | 100 µg/mL |  | 1 µg/mL
9 | CCCCOC(Cn1cc[n+](CC(=O)Nc2ccc(F)cc2)c1)c1ccccc1Cl (stereo not drawn) [C6H4oCl/nC4H9/CH2CONHC6H4pF] | 100 µg/mL | 10 µg/mL | 10 µg/mL | 100 µg/mL | 100 µg/mL |  | 100 µg/mL
10 | Cc1ccccc1NC(=O)C[n+]1ccn(CC(OCc2ccc(Cl)cc2)c2ccc(Cl)cc2)c1 (stereo not drawn) [C6H4pCl/CH2C6H4pCl/CH2CONHC6H4oCH3, 1-[p-Chloro-β-(p-chlorobenzyloxy)phenethyl]-3-(N-o-toylcarbamoylmethyl)imidazolium chloride] | 100 µg/mL | 10 µg/mL | 10 µg/mL | 100 µg/mL | 100 µg/mL |  | 10 µg/mL
11 | Cc1ccccc1NC(=O)C[n+]1ccn(CC(OCc2ccc(Cl)cc2Cl)c2ccc(Cl)cc2)c1 (stereo not drawn) [C6H4pCl/CH2C6H32,4(Cl)2/CH2CONHC6H4oCH3, 1-[p-Chloro-β-(2,4-dichlorobenzyloxy)phenethyl]-3-(N-o-tolylcarbamoylmethyl)imidazolium chloride hydrate] | 10 µg/mL | 1 µg/mL | 1 µg/mL | 100 µg/mL | 100 µg/mL |  | 100 µg/mL
12 | O=C(C[n+]1ccn(CC(OCc2ccc(Cl)cc2Cl)c2ccc(Cl)cc2)c1)Nc1ccc(F)cc1 (stereo not drawn) [C6H4pCl/CH2C6H32,4(Cl)2/CH2CONHC6H4pF, 1-[p-chloro-β-(2,4-dichlorobenzyloxy)phenethyl]-3-[N-(p-fluorophenyl)carbamoyl-methyl]imidazolium chloride] | 10 µg/mL | 1 µg/mL | 1 µg/mL | 10 µg/mL | 100 µg/mL |  | 10 µg/mL
13 | Clc1ccc(COC(C[n+]2ccn(Cc3ccccc3)c2)c2ccccc2)cc1.[Br-] (stereo not drawn) [C6H5/CH2C6H4pCl/CH2C6H5, 1-Benzyl-3-[β-(p-chlorobenzyloxy)phenethyl]imidazolium bromide] | 100 µg/mL | 10 µg/mL | 100 µg/mL | 100 µg/mL |  | > 100 µg/mL | 10 µg/mL
14 | Cc1ccc(C[n+]2ccn(CC(OCc3ccc(Cl)cc3Cl)c3ccc(Cl)cc3Cl)c2)cc1.[Br-] (stereo not drawn) [CH2C6H4pCH3, 1-[2,4-Dichloro-β-(2,4-dichlorobenzyloxy)phenethyl]-3-(p-methylbenzyl)imidazolium bromide] | 100 µg/mL | 1 µg/mL | 10 µg/mL | 10 µg/mL | 100 µg/mL |  | 1 µg/mL
15 | Fc1ccc(C[n+]2ccn(CC(OCc3ccc(Cl)cc3Cl)c3ccc(Cl)cc3Cl)c2)cc1.[I-] (stereo not drawn) [CH2C6H4pF, 1-[2,4-Dichloro-β-(2,4-dichlorobenzyloxy)phenethyl]-3-(p-fluorobenzyl)-imidazolium iodide] | 10 µg/mL | 1 µg/mL | 10 µg/mL | 100 µg/mL | 100 µg/mL |  | 1 µg/mL
16 | OC(Cn1cc[n+](CC(OCc2ccc(Cl)cc2Cl)c2ccc(Cl)cc2Cl)c1)c1ccc(Cl)cc1.[Br-] (stereo not drawn) [CH2CHOHC6H4pCl, 1-(p-chloro-β-hydroxyphenethyl)-3-[2,4-dichloro-β-(2,4-dichlorobenzyloxy)phenethyl]imidazolium bromide] | 10 µg/mL | 1 µg/mL | 1 µg/mL | 10 µg/mL | 100 µg/mL |  | 1 µg/mL
17 | COc1ccccc1NC(=O)C[n+]1ccn(CC(OCc2ccc(Cl)cc2Cl)c2ccc(Cl)cc2Cl)c1 (stereo not drawn) [CH2CONHC6H4oOCH3, 1-[2,4-dichloro-β-(2,4-dichlorobenzyloxy)phenethyl]-3-[N-(o-methoxyphenyl)carbamoylmethyl]imidazolium chloride hydrate] | 10 µg/mL | 1 µg/mL | 1 µg/mL | 10 µg/mL | 100 µg/mL |  | 1 µg/mL
18 | O=C(C[n+]1ccn(CC(OCc2ccc(Cl)cc2Cl)c2ccc(Cl)cc2Cl)c1)Nc1ccc(Cl)cc1 (stereo not drawn) [CH2CONHC6H4p(Cl), 1-[N-(p-chlorophenyl)carbamoylmethyl]-3-[2,4-dichloro-β-(2,4-dichlorobenzyloxy)phenethyl]imidazolium chloride hydrate] | 100 µg/mL | 1 µg/mL | 1 µg/mL | 10 µg/mL | 100 µg/mL |  | 10 µg/mL
